This is an account of results in article PMC11126936, “Reactivating Hippo by drug compounds to suppress gastric cancer and enhance chemotherapy sensitivity” (The Journal of Biological Chemistry, 2024).

The subject of data set [1] is YAP target gene CTGF in HGC-27 cells. The data set is described as follows: CTGF mRNA (qPCR) in HGC-27 cells. The note with it: 48 h.
The test system of data set [2] is HGC-27 cells. In words: Cell viability assay in HGC-27 cells. The class given is cell-based, human. As to conditions: for IC50: cell viability, read-out: IC50 values in HGC-27 cells.
The test system of data set [3] is mice. The note with it: ref [65]; cited from earlier work.
Data set [4] relates to zebrafish larvae. The note with it: ref [65], [66]; cited from earlier work.
The target in data set [5] is T1, PP2Aa–STRN3 interaction (Homo sapiens, UniProt P30153). In words: Co-IP of HA-PP2Aa and Flag-STRN3 in HEK293A cells. The class given is cell-based. On the set-up: expressed in transfected cells; host or cells: HEK293A.
Target sequence in this assay (P30153 whole entry): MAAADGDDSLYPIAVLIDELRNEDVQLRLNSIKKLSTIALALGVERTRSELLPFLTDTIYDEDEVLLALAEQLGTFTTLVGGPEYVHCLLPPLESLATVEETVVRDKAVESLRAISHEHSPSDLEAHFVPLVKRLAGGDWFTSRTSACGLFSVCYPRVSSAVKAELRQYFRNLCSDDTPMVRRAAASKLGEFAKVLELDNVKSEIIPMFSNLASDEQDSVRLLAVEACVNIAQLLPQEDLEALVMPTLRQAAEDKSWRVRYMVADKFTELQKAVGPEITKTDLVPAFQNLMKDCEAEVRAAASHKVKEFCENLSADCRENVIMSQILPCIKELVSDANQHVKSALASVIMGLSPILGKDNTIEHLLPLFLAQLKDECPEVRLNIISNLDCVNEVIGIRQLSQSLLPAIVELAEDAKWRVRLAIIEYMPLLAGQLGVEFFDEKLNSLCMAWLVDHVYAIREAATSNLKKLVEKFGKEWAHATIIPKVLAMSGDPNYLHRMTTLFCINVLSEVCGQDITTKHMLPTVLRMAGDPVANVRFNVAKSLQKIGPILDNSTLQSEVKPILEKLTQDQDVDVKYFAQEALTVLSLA
Data set [6] has as its target T2, PP2Aa (Homo sapiens, UniProt P30153).
T2 construct: GST; made in house; host or cells: E. coli BL21 Codon plus (DE3)
In words: MST assay, binding to PP2Aa.

Data set [7] addresses T1, PP2Aa–STRN3 interaction. The data set is described as follows: GST pulldown assay, PP2Aa–STRN3. The class given is binding. The arrangement: GST; SUMO; made in house; host or cells: E. coli BL21 Codon plus (DE3). As to conditions: recombinant GST-PP2Aa and His-Sumo-STRN3; up to 10 μM compound.
Target sequence in this assay (P30153 8-589): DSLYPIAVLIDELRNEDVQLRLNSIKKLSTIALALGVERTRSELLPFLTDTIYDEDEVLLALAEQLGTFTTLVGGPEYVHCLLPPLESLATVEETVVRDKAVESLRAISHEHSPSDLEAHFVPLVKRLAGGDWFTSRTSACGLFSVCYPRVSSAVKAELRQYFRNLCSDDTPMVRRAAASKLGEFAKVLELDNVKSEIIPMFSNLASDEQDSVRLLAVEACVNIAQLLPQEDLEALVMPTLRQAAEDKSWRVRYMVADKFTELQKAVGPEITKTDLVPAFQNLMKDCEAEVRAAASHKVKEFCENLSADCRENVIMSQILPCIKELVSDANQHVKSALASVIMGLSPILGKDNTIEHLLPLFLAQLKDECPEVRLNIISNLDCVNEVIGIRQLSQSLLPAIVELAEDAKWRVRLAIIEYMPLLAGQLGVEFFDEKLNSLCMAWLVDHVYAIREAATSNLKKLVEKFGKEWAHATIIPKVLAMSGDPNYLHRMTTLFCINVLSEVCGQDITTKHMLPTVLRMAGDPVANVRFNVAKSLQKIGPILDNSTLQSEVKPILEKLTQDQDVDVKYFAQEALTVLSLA
Data set [8] deals with MNNG-induced GC tumors. In words: MNNG-induced GC mouse model. The note with it: 50 mg/kg per day DSF vs control mice.
Data set [9] concerns HGC-27 cells. The data set is described as follows: Colony formation assay in HGC-27 cells. As to conditions: about 2 weeks.
Procedure: After about 2 weeks incubation, cell colonies were identified by their being stained with 1% crystal violet dye. And colonies with diameters of >1 mm were counted.
The target in data set [10] is T2, PP2Aa. In words: ITC binding to PP2Aa. As to conditions: 25 °C. On the procedure: (§1) ITC experiments were conducted using an iTC200 instrument from Microcal at 25 °C. […] Each titration included a single […] injection followed by 19 sequential injections of […] aliquots, with a spacing of 300 s between the injections, and stirring at 1000 rpm. Data were analyzed using the ITC data analysis software (MicroCal Software, https://www.malvernpanalytical.com/en/support/product-support/software/microcal-peaq-itc-analysis-software-v141).

Data set [11] relates to GES-1 cells. In words: Cell viability of non-cancerous gastric epithelial GES-1 cells. The note with it: Homo sapiens, GES1, read-out: IC50 value, GES-1 cells.
Data set [12] concerns the target T3, STRN3 (Homo sapiens, UniProt Q13033).
T3 construct: His-SUMO; made in house; host or cells: E. coli BL21 Codon plus (DE3)
In words: ITC binding to STRN3. On the procedure:
as §1

Data set [13] has as its system YAP phosphorylation. The note with it: HEK293A, Flag-YAP.
The subject of data set [14] is AGS cells xenograft. The data set is described as follows: AGS xenograft tumor model. The note with it: intratumoral injection, five consecutive days, vs control.
Procedure: Briefly, healthy male 615 mice were maintained in pathogen-free conditions. Mice were first injected with 2 × 10^6 AGS cells/per mouse into their flanks to induce tumor formation. Once the tumor volume reached about 100 mm^3, mice were injected intratumorally with indicted inhibitors for five successive days. Two weeks later, the mice were euthanized and then their tumors were harvested and weighed.

Read-outs that look alike come from different tables or passages of the source. Some results are limits rather than exact numbers.

T2 sequence (P30153 8-589): as above
T3 sequence (Q13033 64-145): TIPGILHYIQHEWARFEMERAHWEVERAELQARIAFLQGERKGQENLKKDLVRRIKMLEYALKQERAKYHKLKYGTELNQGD

In the case of `CCN(CC)C(=S)SSC(=S)N(CC)CC` [DSF, disulfiram], the “mRNA levels of YAP target gene CTGF” value in [1] is on record as “significantly reduced”. For the same compound, the IC50 (usually the concentration that inhibits the measured activity by half) in [2] (listed as Disulfiram) is 0.39 µM; in data set [2], under 5 µM; in [11], 1.29 µM. For the same compound, the “effect of addition of copper ion on suppression of HGC-27 cell viability by the compound” value in [2] (compound-Cu complex vs compound) is listed as “further dramatically enhanced”. Further, the “in vivo side effects in mice” value in data set [3] was “reduction of body weight and glucose excretion”. For the same compound, in data set [4], the “adverse effects in zebrafish larvae” value was “adverse effects”. In data set [5], the “PP2Aa–STRN3 interaction in Co-IP” value is reported as “dramatically decreased”. The Kd (commonly the concentration at which binding is half-saturated) in data set [6] worked out at 4.9 µM; in [10] it was 4.1 µM. For the same compound, in data set [6] (compound added), the “effect on binding of STRN3 to PP2Aa” value is listed as “readily disrupted the binding of STRN3 to PP2Aa”. In addition, the “PP2Aa–STRN3 association in GST pulldown” value in data set [7] is reported as “dramatically reduced”. In addition, the “Ctgf expression in tumors (RNA-Scope)” value in data set [8] was “sharp decrease”. Moreover, the area of tumors result in data set [8] was “substantially smaller”. In addition, the “colony formation of HGC-27 cells” value in [9] is on record as “significantly inhibited colony formation”. Moreover, the “binding to STRN3” value in data set [12] is “can specifically bind to PP2Aa but not STRN3”. For the same compound, the “level of pYAP^Ser” value in data set [13] is listed as “dose-dependently increased”. Besides, the “level of pYAP^Tyr” value in [13] is on record as “marginal effect”. In addition, the “tumor weight / tumor growth” value in data set [14] is “modestly lower tumor weights”.
